According to patent US20260272900A1 (Bayer Aktiengesellschaft, priority 2024, published 2026):

Test system: patients with heart failure and left ventricular ejection fraction ≥40% (HFmrEF/HFpEF)
Type: in vivo
Details: bilirubin Tertile 1 ≤0.4 mg/dL; N = 957

CCOc1ncc(C)c2c1[C@H](c1ccc(C#N)cc1OC)C(C(N)=O)=C(C)N2 [finerenone, (4S)-4-(4-cyano-2-methoxyphenyl)-5-ethoxy-2,8-dimethyl-1,4-dihydro-1,6-naphthyridine-3-carboxamide]
Total worsening HF events, event rate: 12.4 per 100 PY
